In US20250346592A1 (Celgene Corporation, priority 2022, published 2025) one finds IC50 data, which are given here for 18 compounds.

The target in the test is hPAD4 enzyme (Homo sapiens (Human), UniProt Q9UM07). Put plainly: RFMS2 assay (RapidFire mass spectrometry, TSTGGRQGSHH peptide substrate). The class given is biochemical. As to conditions: 35 nM recombinant human PAD4, 500 μM TSTGGRQGSHH peptide, 30 minutes at room temperature; read-out: RFMS 2 IC50. The essentials: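 Recombinant human PAD4 (35 nM) with 500 μM TSTGGRQGSHH peptide in HEPES pH 7.4, 200 mM NaCl, 2 mM CaCl2, 5 mM DTT, 1.2% DMSO, 30 min at room temperature; 3-fold compound series, top 20 μM. Quenched with formic acid; substrate and citrullinated product quantified by RapidFire MRM mass spectrometry for IC50.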
Chain of hPAD4 enzyme (Q9UM07 whole entry): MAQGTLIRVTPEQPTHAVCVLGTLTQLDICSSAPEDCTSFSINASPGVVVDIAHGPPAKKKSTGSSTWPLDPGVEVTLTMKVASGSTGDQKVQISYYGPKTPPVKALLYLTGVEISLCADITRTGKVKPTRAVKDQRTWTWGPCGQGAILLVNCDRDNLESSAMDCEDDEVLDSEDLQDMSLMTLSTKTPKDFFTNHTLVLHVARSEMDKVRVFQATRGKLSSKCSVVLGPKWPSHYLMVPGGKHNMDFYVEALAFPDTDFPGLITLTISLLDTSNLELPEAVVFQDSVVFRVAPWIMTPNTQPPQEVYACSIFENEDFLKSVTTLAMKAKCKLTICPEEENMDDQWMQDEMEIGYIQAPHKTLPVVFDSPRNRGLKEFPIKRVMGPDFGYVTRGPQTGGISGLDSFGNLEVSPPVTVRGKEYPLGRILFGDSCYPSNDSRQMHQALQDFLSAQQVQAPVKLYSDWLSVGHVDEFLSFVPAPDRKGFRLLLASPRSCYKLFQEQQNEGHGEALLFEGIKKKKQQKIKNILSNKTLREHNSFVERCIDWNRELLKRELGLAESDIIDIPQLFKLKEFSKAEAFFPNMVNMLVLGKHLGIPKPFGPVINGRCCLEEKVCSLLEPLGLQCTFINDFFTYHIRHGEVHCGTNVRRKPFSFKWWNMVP
`COc1cccc2cc(-c3nc4cc5c(cc4n3C)CCN(C[C@H](N)CF)C5=O)n(Cc3coc(C)n3)c12` [Example 145, (S)-6-(2-amino-3-fluoropropyl)-2-(7-methoxy-1-((2-methyloxazol-4-yl)methyl)-1H-indol-2-yl)-1-methyl-1,6,7,8-tetrahydro-5H-imidazo[4,5-g]isoquinolin-5-one]: the 50% inhibitory concentration (IC50) is 101 to 500 nM. The value for `COC1(Cn2c(-c3nc4cc5c(cc4n3C)CCN(C[C@H](N)CF)C5=O)cc3ccccc32)CC1` [Example 147, (S)-6-(2-amino-3-fluoropropyl)-2-(1-((1-methoxycyclopropyl)methyl)-1H-indol-2-yl)-1-methyl-1,6,7,8-tetrahydro-5H-imidazo[4,5-g]isoquinolin-5-one] was greater than 1000 nM. Regarding `Cn1c(-c2cc3cccc(C#N)c3n2Cc2ccno2)nc2cc3c(cc21)CCN(C[C@H](N)CF)C3=O` [Example 148, (S)-2-(6-(2-amino-3-fluoropropyl)-1-methyl-5-oxo-5,6,7,8-tetrahydro-1H-imidazo[4,5-g]isoquinolin-2-yl)-1-(isoxazol-5-ylmethyl)-1H-indole-7-carbonitrile], the IC50 fell in the range of 501 to 1000 nM. For `Cn1c(-c2cc3cccc(OCC4COC4)c3n2CC2CC2)nc2cc3c(cc21)CCN(C[C@H](N)CF)C3=O` [Example 149, (S)-6-(2-amino-3-fluoropropyl)-2-(1-(cyclopropylmethyl)-7-(oxetan-3-ylmethoxy)-1H-indol-2-yl)-1-methyl-1,6,7,8-tetrahydro-5H-imidazo[4,5-g]isoquinolin-5-one] the value was 101 to 500 nM. For `Cn1c(-c2cc3cccc(OCC4CNC(=O)C4)c3n2CC2CC2)nc2cc3c(cc21)CCN(C[C@H](N)CF)C3=O` (stereo partly drawn) [Example 151] the value was 11 to 100 nM. For `Cn1c(-c2cc3cccc(OCC4CNC4)c3n2CC2CC2)nc2cc3c(cc21)CCN(C[C@H](N)CF)C3=O` [Example 152, (S)-6-(2-amino-3-fluoropropyl)-2-(7-(azetidin-3-ylmethoxy)-1-(cyclopropylmethyl)-1H-indol-2-yl)-1-methyl-1,6,7,8-tetrahydro-5H-imidazo[4,5-g]isoquinolin-5-one] the value was 101 to 500 nM. For the compound `COCCOc1cccc2cc(-c3nc4cc5c(cc4n3C)CCN(C[C@H](N)CF)C5=O)n(CC3CC3)c12` [Example 153, (S)-6-(2-amino-3-fluoropropyl)-2-(1-(cyclopropyl-methyl)-7-(2-methoxyethoxy)-1H-indol-2-yl)-1-methyl-1,6,7,8-tetrahydro-5H-imidazo[4,5-g] isoquinolin-5-one], the IC50 was 101 to 500 nM. The value for `CN(C)CCOc1cccc2cc(-c3nc4cc5c(cc4n3C)CCN(C[C@H](N)CF)C5=O)n(CC3CC3)c12` [Example 154, (S)-6-(2-amino-3-fluoropropyl)-2-(1-(cyclopropyl-methyl)-7-(2-(dimethylamino)ethoxy)-1H-indol-2-yl)-1-methyl-1,6,7,8-tetrahydro-5H-imidazo[4,5-g] isoquinolin-5-one] was greater than 1000 nM; that for `Cn1c(-c2cc3cccc(OCCn4cccn4)c3n2CC2CC2)nc2cc3c(cc21)CCN(C[C@H](N)CF)C3=O` [Example 155, (S)-2-(7-(2-(1H-pyrazol-1-yl)ethoxy)-1-(cyclopropyl-methyl)-1H-indol-2-yl)-6-(2-amino-3-fluoropropyl)-1-methyl-1,6,7,8-tetrahydro-5H-imidazo[4,5-g] isoquinolin-5-one] was 11 to 100 nM; that for `Cn1c(-c2cc3cccc(OC[C@@H]4CCC(=O)N4)c3n2CC2CC2)nc2cc3c(cc21)CCN(C[C@H](N)CF)C3=O` [Example 156, 6-((S)-2-amino-3-fluoropropyl)-2-(1-(cyclopropyl-methyl)-7-(((S)-5-oxopyrrolidin-2-yl)methoxy)-1H-indol-2-yl)-1-methyl-1,6,7,8-tetrahydro-5H-imidazo [4,5-g]isoquinolin-5-one] was 101 to 500 nM. In the case of `Cn1c(-c2cc3cccc(OC[C@H]4CCC(=O)N4)c3n2CC2CC2)nc2cc3c(cc21)CCN(C[C@H](N)CF)C3=O` [Example 157, 6-((S)-2-amino-3-fluoropropyl)-2-(1-(cyclopropyl-methyl)-7-(((R)-5-oxopyrrolidin-2-yl)methoxy)-1H-indol-2-yl)-1-methyl-1,6,7,8-tetrahydro-5H-imidazo [4,5-g]isoquinolin-5-one], the IC50 was in the range of 101 to 500 nM. Turning to `Cn1c(-c2cc3cccc(OCCN4CCOCC4)c3n2CC2CC2)nc2cc3c(cc21)CCN(C[C@H](N)CF)C3=O` [Example 158, (S)-6-(2-amino-3-fluoropropyl)-2-(1-(cyclopropyl-methyl)-7-(2-morpholinoethoxy)-1H-indol-2-yl)-1-methyl-1,6,7,8-tetrahydro-5H-imidazo[4,5-g] isoquinolin-5-one], the IC50 lay within 501 to 1000 nM. For `Cn1c(-c2cc3cccc(OC[C@@H]4CNCCO4)c3n2CC2CC2)nc2cc3c(cc21)CCN(C[C@H](N)CF)C3=O` [Example 159, 6-((S)-2-amino-3-fluoropropyl)-2-(1-(cyclopropyl-methyl)-7-(((S)-morpholin-2-yl)methoxy)-1H-indol-2-yl)-1-methyl-1,6,7,8-tetrahydro-5H-imidazo[4,5-g] isoquinolin-5-one] the value was 501 to 1000 nM; for `Cn1c(-c2cc3cccc(OC[C@H]4CNCCO4)c3n2CC2CC2)nc2cc3c(cc21)CCN(C[C@H](N)CF)C3=O` [Example 160, 6-((S)-2-amino-3-fluoropropyl)-2-(1-(cyclopropylmethyl)-7-(((R)-morpholin-2-yl)methoxy)-1H-indol-2-yl)-1-methyl-1,6,7,8-tetrahydro-5H-imidazo[4,5-g]isoquinolin-5-one], 501 to 1000 nM. The value for `Cn1c(-c2cc3cccc(OCC4CCOCC4)c3n2CC2CC2)nc2cc3c(cc21)CCN(C[C@H](N)CF)C3=O` [Example 161, (S)-6-(2-amino-3-fluoropropyl)-2-(1-(cyclopropylmethyl)-7-((tetrahydro-2H-pyran-4-yl)methoxy)-1H-indol-2-yl)-1-methyl-1,6,7,8-tetrahydro-5H-imidazo[4,5-g]isoquinolin-5-one] was 501 to 1000 nM. For `Cc1nc(C)n(CCOc2cccc3cc(-c4nc5cc6c(cc5n4C)CCN(C[C@H](N)CF)C6=O)n(CC4CC4)c23)n1` [Example 162, (S)-6-(2-amino-3-fluoropropyl)-2-(1-(cyclopropyl-methyl)-7-(2-(3,5-dimethyl-1H-1,2,4-triazol-1-yl)ethoxy)-1H-indol-2-yl)-1-methyl-1,6,7,8-tetrahydro-5H-imidazo[4,5-g]isoquinolin-5-one] the value was 101 to 500 nM. As for `Cc1ncnn1CCOc1cccc2cc(-c3nc4cc5c(cc4n3C)CCN(C[C@H](N)CF)C5=O)n(CC3CC3)c12` [Example 163, (S)-6-(2-amino-3-fluoropropyl)-2-(1-(cyclopropylmethyl)-7-(2-(5-methyl-1H-1,2,4-triazol-1-yl)ethoxy)-1H-indol-2-yl)-1-methyl-1,6,7,8-tetrahydro-5H-imidazo[4,5-g]isoquinolin-5-one], the half-inhibitory concentration (IC50) fell in the range of 101 to 500 nM.

As to `Cc1ncn(CCOc2cccc3cc(-c4nc5cc6c(cc5n4C)CCN(C[C@H](N)CF)C6=O)n(CC4CC4)c23)n1` [Example 164, (S)-6-(2-amino-3-fluoropropyl)-2-(1-(cyclopropyl-methyl)-7-(2-(3-methyl-1H-1,2,4-triazol-1-yl)ethoxy)-1H-indol-2-yl)-1-methyl-1,6,7,8-tetrahydro-5H-imidazo[4,5-g]isoquinolin-5-one], the concentration for half-maximal inhibition (IC50) fell in the range of 11 to 100 nM.
